Patent US20160106102A1, “KNOWN AND NEW HETEROCYCLIC COMPOUNDS AS PEST CONTROL AGENTS” (BAYER CROPSCIENCE AKTIENGESELLSCHAFT, priority 2013, published 2016)
“And” between values parts separate entries of the source, which are not always exact repeats. Equal values may be shown once. Read-outs that look alike come from different tables or passages of the source.

Tests used:
Myzus persicae [1] = experiment: Myzus persicae - spray test; assay type: in vivo; details: application rate of 500 g/ha, after 6 days, sprayed Chinese cabbage leaf discs infested by all stages, 100% = all aphids killed
Method: Myzus persicae—spray test Solvent: 78 parts by weight of acetone • • 1.5 parts by weight of dimethylformamide Emulsifier: 0.5 part by weight of alkylaryl polyglycol ether To produce an appropriate active ingredient formulation, 1 part by weight of active ingredient is mixed with the specified amounts of solvent and emulsifier, and the concentrate is diluted to the desired concentration with emulsifier-containing water. Discs of Chinese cabbage leaves (Brassica pekinensis) infested by all stages of the green peach aphid (Myzus persicae) are sprayed with an active ingredient formulation of the desired concentration. After 6 days, the efficacy in % is determined. 100% means that all the aphids have been killed; 0% means that no aphids have been killed.

Myzus persicae [2] = experiment: Myzus persicae - sachet test; assay type: in vivo; details: 100% = all animals killed
How it was run: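 Active ingredient dissolved with 2% N-methylpyrrolidone and 2% diacetone alcohol, diluted in water, then pipetted into nutrient medium. Plate sealed and paired with a plate carrying green peach aphids. Kill in % scored after the set time (100% = all dead, 0% = none dead).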

[3] = log P determination by LC-MS in the acidic range; assay type: physicochemical; details: for log P (acid): LC-MS in the acidic range
Excerpt: The LC-MS determination in the acidic range is effected at pH 2.7 using 0.1% aqueous formic acid and acetonitrile (contains 0.1% formic acid) as eluents, linear gradient from 10% acetonitrile to 95% acetonitrile. Alternatively, the determination is effected in the acidic range at pH 2.3 using 0.1% aqueous phosphoric acid and acetonitrile as eluents; linear gradient from 10% acetonitrile to 95% acetonitrile.

[4] = application rate of 6 ppm in nutrient medium
[5] = application rate of 30 ppm in nutrient medium

Row | Structure (SMILES) | efficacy in % (Myzus persicae [1]) | efficacy (kill in %) (Myzus persicae [2]; [4]) [%] | efficacy (kill in %) (Myzus persicae [2]; [5]) [%] | log P (acid) [3] | HPLC-MS: log P ([3]; values given in the synthesis examples and NMR lists) | pest or weed control at 500 g/ha (Myzus persicae [1]; Myzus persicae, foliar, 144 h, read-out: efficacy in %) [%] | pest or weed control at 6 ppm (Myzus persicae [2]; Myzus persicae, application rate of 6 ppm in nutrient medium, read-out: efficacy (kill in %)) [%] | pest or weed control at 30 ppm (Myzus persicae [2]; Myzus persicae, application rate of 30 ppm in nutrient medium, read-out: efficacy (kill in %)) [%] | chromatographic logP ([3]; pH 2.7, LC-MS in the acidic range, read-out: log P (acid)) | chromatographic logP ([3]; pH 2.7, values given in the synthesis examples and NMR lists, read-out: HPLC-MS: log P)
1 | Cc1cc(C)nc(Cn2nc(NC(=O)c3cccnc3)cc2C)n1 [Compound I-1-36] | 90% | 100 | 100 | 1.2 | – | – | – | – | – | –
2 | CCn1nc(NC(=O)c2cccnc2)cc1C [Compound I-1-38] | 100% | 100 | 100 | 0.93 | – | – | – | – | – | –
3 | Cn1nc(NC(=O)c2cccnc2)c2cccnc21 [Compound I-1-39] | 90% | 100 | 100 | 0.78 | – | – | – | – | – | –
4 | C#CCn1nc(NC(=O)c2cccnc2)cc1CC [Compound I-1-40] | 90% | 100 | 100 | 1.31 | – | – | – | – | – | –
5 | Cc1cc(N(C(=O)c2ccc(Cl)cc2)C(=O)c2cccnc2)nn1C(=O)c1ccc(Cl)cc1 [Compound I-1-42] | 90% | 80 | 100 | 4.18 | – | – | – | – | – | –
6 | C#CCn1nc(NC(=O)c2cccnc2)cc1C1CC1 [Compound I-1-43] | 90% | 100 | 100 | 1.41 | – | – | – | – | – | –
7 | Cc1cc(NC(=O)c2cccnc2)nn1-c1ncc(C(F)(F)F)cc1Cl [Compound I-1-44] | 100% | 100 | 100 | 2.2 | – | – | – | – | – | –
8 | Cc1cc(NC(=O)c2cccnc2)nn1Cc1ccccc1 [Compound I-1-46] | 100% and 90% | 100 | 100 | 1.79 | – | – | – | – | – | –
9 | Cc1cc(NC(=O)c2cccnc2)nn1C(C)C [Compound I-1-49] | 80% | 100 | 100 | 1.4 | – | – | – | – | – | –
10 | Cc1cc(NC(=O)c2cccnc2)nn1Cc1ccncc1 [Compound I-1-51] | 90% | 100 | 100 | 0.13 | – | – | – | – | – | –
11 | O=C(Nc1ccn(-c2ccccn2)n1)c1cccnc1 [Compound I-1-52] | 90% | 100 | 100 | 1.32 | – | – | – | – | – | –
12 | C#CCn1ccc(NC(=O)c2cccnc2)n1 [Compound I-1-54] | 90% | 100 | 100 | 0.69 | – | – | – | – | – | –
13 | Cc1cc(NC(=O)c2cccnc2)nn1-c1cnccn1 [Compound I-1-55] | 80% | – | 100 | 1.27 | – | – | – | – | – | –
14 | Cc1cc(NC(=O)c2cccnc2)nn1Cc1cccc(F)c1 [Compound I-1-60] | 100% | 100 | 100 | 1.9 | – | – | – | – | – | –
15 | CCOC(=O)CN(C)C(=O)Cn1nc(NC(=O)c2cncc(F)c2)cc1C [Compound I-1-61] | 80% | – | 100 | 1.35 | Compound No. I-1-61: HPLC-MS: logP = 1.35; mass (m/z): 378.1 (M + H)^+; 1H NMR (CD3CN) 1.21-1.28 (m, | – | – | – | – | –
16 | O=C(Nc1ccn(-c2ncc(C(F)(F)F)cc2Cl)n1)c1cccnc1 [Compound I-1-63] | 100% | – | 100 | 2.18 | – | – | – | – | – | –
17 | Cc1cc(NC(=O)c2cccnc2)nn1Cc1ccccc1F [Compound I-1-64] | 90% | 100 | 100 | 1.82 | – | – | – | – | – | –
18 | O=C(Nc1ccn(C(CF)CF)n1)c1cccnc1 [Compound I-1-65] | 90% | 100 | 100 | 0.84 | – | – | – | – | – | –
19 | Cc1c(NC(=O)c2cccnc2)nn(Cc2ncccn2)c1C [Compound I-1-123] | 90% | 100 | 100 | 0.76 | – | – | – | – | – | –
20 | CNC(=O)Cn1nc(NC(=O)c2cccnc2)cc1C [Compound I-1-124] | 90% | 100 | 100 | 0.29 | – | – | – | – | – | –

Row | Structure (SMILES) | efficacy in % (Myzus persicae [1]) | efficacy (kill in %) (Myzus persicae [2]; [4]) [%] | efficacy (kill in %) (Myzus persicae [2]; [5]) [%] | log P (acid) [3] | HPLC-MS: log P ([3]; values given in the synthesis examples and NMR lists) | pest or weed control at 500 g/ha (Myzus persicae [1]; Myzus persicae, foliar, 144 h, read-out: efficacy in %) [%] | pest or weed control at 6 ppm (Myzus persicae [2]; Myzus persicae, application rate of 6 ppm in nutrient medium, read-out: efficacy (kill in %)) [%] | pest or weed control at 30 ppm (Myzus persicae [2]; Myzus persicae, application rate of 30 ppm in nutrient medium, read-out: efficacy (kill in %)) [%] | chromatographic logP ([3]; pH 2.7, LC-MS in the acidic range, read-out: log P (acid)) | chromatographic logP ([3]; pH 2.7, values given in the synthesis examples and NMR lists, read-out: HPLC-MS: log P)
21 | COC(=O)n1nc(NC(=O)c2cccnc2)cc1C [Compound I-1-126] | 90% | 100 | 100 | 1.08 | – | – | – | – | – | –
22 | Cc1cc(NC(=O)c2ccc[n+]([O-])c2)nn1Cc1ncccn1 [Compound I-1-128] | 90% | 100 | 100 | 0.55 | – | – | – | – | – | –
23 | CCC(=O)n1nc(NC(=O)c2cccnc2)cc1C [Compound I-1-129] | 90% | 100 | 100 | 1.56 | – | – | – | – | – | –
24 | Cc1cc(NC(=O)c2cccnc2)nn1CC(F)(F)F [Compound I-1-133] | 90% | 100 | 100 | 1.32 | – | – | – | – | – | –
25 | O=C(Nc1cc(Br)n(Cc2ncccn2)n1)c1cccnc1 [Compound I-1-140, N-[5-Bromo-1-(pyrimidin-2-ylmethyl)-1H-pyrazol-3-yl]nicotinamide] | – | – | – | – | – | 90 | 100 | 100 | 1.1 | 1.1
26 | Cc1cc(NC(=O)c2cccnc2)nn1Cn1nc(C)n(C)c1=O [Compound I-1-143] | 90% | 100 | 100 | 0.72 | – | – | – | – | – | –
27 | COc1nn(Cn2nc(NC(=O)c3cccnc3)cc2C)c(=O)n1C1CC1 [Compound I-1-144] | 90% | 100 | 100 | 1.27 | – | – | – | – | – | –
28 | Cc1cc(NC(=O)c2cccnc2)nn1Cn1nc(C2CC2)n(C2CC2)c1=O [Compound I-1-147] | 100% | 100 | 100 | 1.45 | – | – | – | – | – | –
29 | Cc1cc(NC(=O)c2cccnc2)nn1Cn1c(C)nn(C)c1=O [Compound I-1-148] | 90% | 100 | 100 | 0.74 | – | – | – | – | – | –
30 | Cc1cc(NC(=O)c2cccnc2)nn1CN1CCCNC1=O [Compound I-1-149] | 90% | 100 | 100 | 0.62 | – | – | – | – | – | –
31 | Cc1cc(NC(=O)c2cccnc2)nn1Cc1nn(C)c(=O)n1C [Compound I-1-153] | 100% | 100 | 100 | 0.62 | – | – | – | – | – | –
32 | Cc1cc(NC(=O)c2cccnc2)nn1Cc1cn2cc(C(F)(F)F)ccc2n1 [Compound I-1-155] | 90% | 100 | 100 | 1.54 | – | – | – | – | – | –
33 | Cc1cc(NC(=O)c2cccnc2)nn1Cc1cc(C(=O)O)n(-c2ncccc2Cl)n1 [Compound I-1-156] | 90% | 100 | 100 | 1.18 | – | – | – | – | – | –
34 | COCCNC(=O)n1nc(NC(=O)c2cccnc2)cc1C [Compound I-1-163] | 100% | 100 | 100 | 1.22 | – | – | – | – | – | –
35 | Cc1cc(NC(=O)c2cccnc2)nn1C(=O)NCC1COC(C)(C)O1 (centres unmarked) [Compound I-1-164] | 90% | 100 | 100 | 1.56 | – | – | – | – | – | –
36 | COCC(C)NC(=O)n1nc(NC(=O)c2cccnc2)cc1C (centres unmarked) [Compound I-1-166] | 100% | 100 | 100 | 1.44 | – | – | – | – | – | –
37 | CSCCNC(=O)n1nc(NC(=O)c2cccnc2)cc1C [Compound I-1-167] | 90% | 100 | 100 | 1.55 | – | – | – | – | – | –
38 | COCCN(CCOC)C(=O)n1nc(NC(=O)c2cccnc2)cc1C [Compound I-1-169] | 100% | 100 | 100 | 1.91 | – | – | – | – | – | –
39 | CCOC(CNC(=O)n1nc(NC(=O)c2cccnc2)cc1C)OCC [Compound I-1-170] | 90% | 100 | 100 | 1.88 | – | – | – | – | – | –
